Experiments:
[1] = Metabolic stability in human liver microsomes assessed as compound remaining at 5 umol/L measured after 60 mins by UPLC/MS analysis; format: ADME, Microsome; conditions: dose 5 µmol/L, read-out: Stability
[2] = biological target: T1, Nuclear receptor ROR-gamma (Homo sapiens, UniProt P51449); test: Inhibition of GAL4 DNA-binding domain fused RORgamma (unknown origin) transfected in CHO-K1 cells incubated for 2 days by luciferase assay; format: cell-based
T1 sequence (P51449 whole entry): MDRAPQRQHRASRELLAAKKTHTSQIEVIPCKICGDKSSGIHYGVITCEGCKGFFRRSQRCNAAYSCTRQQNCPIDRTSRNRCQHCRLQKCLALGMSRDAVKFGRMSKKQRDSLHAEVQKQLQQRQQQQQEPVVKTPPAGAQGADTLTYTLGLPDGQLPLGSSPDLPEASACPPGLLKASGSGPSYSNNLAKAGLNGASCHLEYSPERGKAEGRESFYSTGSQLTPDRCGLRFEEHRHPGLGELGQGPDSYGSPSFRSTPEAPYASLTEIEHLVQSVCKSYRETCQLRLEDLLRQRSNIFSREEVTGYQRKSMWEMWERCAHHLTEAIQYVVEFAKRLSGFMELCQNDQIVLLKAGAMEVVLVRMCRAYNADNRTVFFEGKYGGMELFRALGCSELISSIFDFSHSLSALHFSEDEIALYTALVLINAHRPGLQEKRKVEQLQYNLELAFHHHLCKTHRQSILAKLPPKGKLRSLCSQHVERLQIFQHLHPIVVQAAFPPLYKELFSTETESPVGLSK

[3] = Apparent permeability in human Caco-2 cells at 25 umol/L incubated for 2 hrs by LC/MS/MS analysis; format: ADME, cell-based; conditions: dose 25 µmol/L
[4] = Lipophilicity, logD of compound by RP-HPLC analysis; format: physicochemical

SMILES | remaining at 1 h, 5 µM [1] | EC50 [2] | Papp at 2 h, 25 µM [3] | logD [4]
Cc1ccc(NC(=O)CC(CC(=O)N(C)C)c2nnc([C@H]3C[C@@H](CC(C)C)C3)n2C2CC2)c(C)c1 (mixture of isomers) | 27% | 150 nM | 18.3 ×10⁻⁶ cm/s | 4.3
Cc1ccc(NC(=O)C[C@H](Cc2nccs2)c2nnc([C@H]3C[C@@H](CC(C)C)C3)n2C2CC2)c(C)c1 | 69% | < 32 nM | 29.4 ×10⁻⁶ cm/s | 4.6
CCc1c([C@@H](CC(=O)O)CC(=O)Nc2ccc(C)cc2C)noc1[C@H]1C[C@@H](CC(C)C)C1 | 68% | – | 37.9 ×10⁻⁶ cm/s | 4.2
Cc1ccc(NC(=O)C[C@H](CC(=O)O)c2noc([C@H]3C[C@@H](CC(C)C)C3)c2C2CC2)c(C)c1 | 78% | – | 40.6 ×10⁻⁶ cm/s | 4.3
Cc1ccc(NC(=O)C[C@H](CC(=O)O)c2noc([C@H]3C[C@@H](C(C)(C)C(C)C)C3)c2C2CC2)c(C)c1 | 60% | – | 23.6 ×10⁻⁶ cm/s | 4.7
CC(C)C[C@H]1C[C@@H](c2onc([C@@H](CC(=O)O)CC(=O)Nc3ccc(Cl)cc3F)c2C2CC2)C1 | 67% | 97 nM | 29.9 ×10⁻⁶ cm/s | 4.4
Cc1ccc(NC(=O)CC(CCC(=O)O)c2ncnc([C@H]3C[C@@H](CC(C)(C)C)C3)c2C2CC2)c(Cl)c1 (mixture of isomers) | 52% | 16 nM | 20.7 ×10⁻⁶ cm/s | –
Cc1ccc(NC(=O)CCc2nnc([C@H]3C[C@@H](CC(C)C)C3)n2C2CC2)c(C)c1 | 39% | – | – | 4.4
Cc1ccc(C)c(NC(=O)C[C@H](CC(=O)O)c2noc([C@H]3C[C@@H](CC(C)C)C3)c2C2CC2)c1 | 76% | 65 nM | 35.5 ×10⁻⁶ cm/s | 4.2
Cc1ccc(NC(=O)C[C@H](CC(=O)O)c2noc([C@H]3C[C@@H](CC(C)C)C3)c2C2CC2)c(F)c1 | 67% | – | 33.1 ×10⁻⁶ cm/s | 4.2
Cc1ccc(NC(=O)C[C@H](Cc2ccc(C(=O)O)cc2)c2noc([C@H]3C[C@@H](CC(C)C)C3)c2C2CC2)c(C)c1 (mixture of isomers) | 67% | – | 14.3 ×10⁻⁶ cm/s | 4.7
Cc1ccc(NC(=O)C[C@H](CC(=O)O)c2noc([C@H]3C[C@@H](CC(C)(C)C)C3)c2C2CC2)c(C)c1 (mixture of isomers) | 82% | 29 nM | 24.6 ×10⁻⁶ cm/s | 4.5
CC(=O)N1C[C@H](C(=O)Nc2ccc(C)cc2C)[C@@H](c2nnc([C@H]3C[C@@H](CC(C)C)C3)n2C2CC2)C1 | 61% | – | 19.8 ×10⁻⁶ cm/s | –
Cc1ccc(NC(=O)C[C@H](CC(=O)O)c2noc([C@H]3C[C@@H](CCC(C)(C)C)C3)c2C2CC2)c(C)c1 | 61% | – | 22.8 ×10⁻⁶ cm/s | 5
Cc1ccc(NC(=O)C[C@H](c2nnc([C@H]3C[C@@H](CC(C)C)C3)n2C2CC2)[C@H]2C[C@@H](O)C2)c(C)c1 | 0% | – | 15.2 ×10⁻⁶ cm/s | 4.1
Cc1ccc(NC(=O)C[C@H](OCC(=O)O)c2noc([C@H]3C[C@@H](CC(C)C)C3)c2C2CC2)c(C)c1 | 64% | – | 24.9 ×10⁻⁶ cm/s | 3.8
Cc1ccc(NC(=O)C[C@H](CCC(=O)O)c2noc([C@H]3C[C@@H](CC(C)C)C3)c2C2CC2)c(C)c1 | 61% | – | 31.4 ×10⁻⁶ cm/s | 4.7
Cc1ccc(NC(=O)C[C@H](Cc2nnn[nH]2)c2noc([C@H]3C[C@@H](CC(C)C)C3)c2C2CC2)c(C)c1 | 0% | 63 nM | 21.8 ×10⁻⁶ cm/s | 4.1
Cc1ccc(NC(=O)C[C@H](CCC(=O)O)C(=O)N(C[C@H]2C[C@@H](CC(C)(C)C)C2)C2CC2)c(Cl)c1 (mixture of isomers) | 73% | – | 30.6 ×10⁻⁶ cm/s | 4.5
Cc1ccc(NC(=O)C[C@@H](c2noc([C@H]3C[C@@H](CC(C)C)C3)c2C2CC2)C(C)(C)CC(=O)O)c(C)c1 | 53% | – | 27.7 ×10⁻⁶ cm/s | 5.2
Cc1cc(F)ccc1NC(=O)C[C@H](CC(=O)O)c1noc([C@H]2C[C@@H](CC(C)C)C2)c1C1CC1 | 82% | 64 nM | 38 ×10⁻⁶ cm/s | 3.9
Cc1ccc(NC(=O)C[C@@H](c2noc([C@H]3C[C@@H](CC(C)C)C3)c2C2CC2)C(C)(C)C(=O)O)c(C)c1 | 77% | 260 nM | 27.6 ×10⁻⁶ cm/s | 5

SMILES | remaining at 1 h, 5 µM [1] | EC50 [2] | Papp at 2 h, 25 µM [3] | logD [4]
Cc1ccc(NC(=O)C[C@H](CC(=O)O)c2noc([C@H]3C[C@@H](CC(C)C)C3)c2C2CC2)c(Cl)c1 | 67% | 43 nM | 27.4 ×10⁻⁶ cm/s | 4.4
CCC(CC)C[C@H]1C[C@@H](c2onc([C@@H](CC(=O)O)CC(=O)Nc3ccc(C)cc3C)c2C2CC2)C1 | 88% | – | 13.6 ×10⁻⁶ cm/s | 4.9
Cc1cc(C)c(NC(=O)C[C@H](CC(=O)O)c2noc([C@H]3C[C@@H](CC(C)C)C3)c2C2CC2)cc1C | 78% | – | 32 ×10⁻⁶ cm/s | 4.6
Cc1ccc(NC(=O)C[C@H](CC(=O)O)c2noc([C@H]3C[C@@H](CC(C)C)C3)c2C(C)C)c(C)c1 | 37% | 660 nM | 23.3 ×10⁻⁶ cm/s | 4.4
Cc1cc(C)cc(NC(=O)C[C@H](CC(=O)O)c2noc([C@H]3C[C@@H](CC(C)C)C3)c2C2CC2)c1 | 52% | – | 33.7 ×10⁻⁶ cm/s | 4.5
Cc1ccc(NC(=O)CC(Cc2nnn[nH]2)c2nnc([C@H]3C[C@@H](CC(C)C)C3)n2C2CC2)c(C)c1 (mixture of isomers) | 91% | 6000 nM | 0.2 ×10⁻⁶ cm/s | 3.1
Cc1cccc(C)c1NC(=O)C[C@H](CC(=O)O)c1noc([C@H]2C[C@@H](CC(C)C)C2)c1C1CC1 | 85% | – | 39.6 ×10⁻⁶ cm/s | 4.2
Cc1ccc(NC(=O)C[C@H](CC(=O)O)c2noc([C@H]3C[C@@H](CC(C)C)C3)c2C2CC2)c(C)c1C | 76% | – | 21.8 ×10⁻⁶ cm/s | 4.4
Cc1ccc(NC(=O)C[C@H](CCC(=O)O)n2ncc([C@H]3C[C@@H](CC(C)(C)C)C3)c2C2CC2)c(Cl)c1 | 42% | – | 14.5 ×10⁻⁶ cm/s | 5
C=C(C)c1c([C@@H](CC(=O)O)CC(=O)Nc2ccc(C)cc2C)noc1[C@H]1C[C@@H](CC(C)C)C1 | 54% | 1200 nM | 27.6 ×10⁻⁶ cm/s | 4.3
Cc1ccc(NC(=O)C[C@H](CC(=O)O)c2noc([C@H]3C[C@@H](CC(C)C)C3)c2C2CC2)cc1C | 65% | – | 32.4 ×10⁻⁶ cm/s | 4.5
CCC(C)(C)C[C@H]1C[C@@H](c2onc([C@@H](CC(=O)O)CC(=O)Nc3ccc(C)cc3C)c2C2CC2)C1 | 65% | – | 22.5 ×10⁻⁶ cm/s | 5
Cc1ccc(NC(=O)C[C@H](C[C@H]2C[C@@H](C(=O)O)C2)c2noc([C@H]3C[C@@H](CC(C)C)C3)c2C2CC2)c(C)c1 | 69% | – | 20.9 ×10⁻⁶ cm/s | 5.1
Cc1ccc(NC(=O)C[C@H](CC(=O)O)c2noc([C@H]3C[C@@H](CCC(C)C)C3)c2C2CC2)c(C)c1 | 90% | – | 21.5 ×10⁻⁶ cm/s | 4.7
Cc1ccc(NC(=O)CC(Cc2ncco2)c2nnc([C@H]3C[C@@H](CC(C)C)C3)n2C2CC2)c(C)c1 (mixture of isomers) | 75% | < 32 nM | 27 ×10⁻⁶ cm/s | 4.5
Cc1cccc(NC(=O)C[C@H](CC(=O)O)c2noc([C@H]3C[C@@H](CC(C)C)C3)c2C2CC2)c1C | 67% | – | 35.5 ×10⁻⁶ cm/s | 4.3
Cc1ccc(NC(=O)CC(c2nnc([C@H]3C[C@@H](CC(C)C)C3)n2C2CC2)C2CNC2)c(C)c1.Cl (mixture of isomers) | 95% | > 20000 nM | < 0.1 ×10⁻⁶ cm/s | 3.7
CC(C)C[C@H]1C[C@@H](c2onc([C@@H](CC(=O)O)CC(=O)Nc3ccc(F)cc3Cl)c2C2CC2)C1 | 74% | – | 33.5 ×10⁻⁶ cm/s | 4.3
Cc1cc(C)c(C)c(NC(=O)C[C@H](CC(=O)O)c2noc([C@H]3C[C@@H](CC(C)C)C3)c2C2CC2)c1 | 64% | 63 nM | 17 ×10⁻⁶ cm/s | 4.5
Cc1ccc(NC(=O)C[C@H](Cc2nc(C(=O)O)cs2)c2noc([C@H]3C[C@@H](CC(C)C)C3)c2C2CC2)c(C)c1 | 71% | 110 nM | 7.5 ×10⁻⁶ cm/s | 4.2
Cc1ccc(NC(=O)CC(CC(=O)O)c2nnc([C@H]3C[C@@H](CC(C)C)C3)n2C2CC2)c(C)c1 (mixture of isomers) | 103% | 3000 nM | 0.1 ×10⁻⁶ cm/s | 3.2
